Experimental findings from patent publication US9976183B2, “Biomarkers for cancers responsive to modulators of HEC1 activity” (TAIVEX THERAPEUTICS CORPORATION, priority 2011, dated 2018) are described below.

Holding throughout (type): cell-based
In experiment [1] the test system is Huh7. The experiment can be described thus: Drug sensitivity, MTS cell viability assay (GI50). As to the method:
(§1) Drug sensitivity: Cell lines were screened for drug sensitivity by treatment with specified drugs 24 hours after seeding in appropriate seeding numbers into 96 well plates containing low glucose DME with 10% FBS. The drug was added to the plate in triplicate wells, and the cells are incubated in drug treated medium for 96 hours before cell viability was determined by MTS assay using CellTiter 96® Aqueous non-radioactive cell proliferation assay system (Promega, Madison, Wis. 53711 USA). The MTS assay was performed according to the manufacturer's instructions. Optical density was measured using a Bio-Tek 340 spectrophotometer (Bio-Tek, Winooski, Vt. 05404) and optical readings were then processed in Excel (Microsoft, Redmond, Wash. 98052-7329) and GraphPad Prism 5 linear regression software (GraphPad Software, La Jolla, Calif. 92037 USA) to determine concentration-response curves for calculating relative GI50s. […] The % growth inhibition of the test drug on cells were calculated as: [1−(Test Value)/(Control Value)]×100; these values were used to plot concentration-response curves, and then analyzed with linear regression software.
For orientation: Tetrazolium assays rely on reduction of a dye to a coloured formazan, in cell work by metabolically active cells.

For another experiment, the system named is MB-231. Briefly: Synergy of Hec1 inhibitor with cytotoxic drug (combination index, MTS). The method, then:
(§2) Synergy: GI50s for selected drugs were determined and used to calculate a concentration ratio for use synergy assays with Hec1 inhibitors. Cells were treated with drugs 24 hours after being seeded in appropriate seeding numbers into 96 well plates containing low glucose DME with 10% FBS. […] Cell viability was determined by MTS assay using a CellTiter 96® Aqueous non-radioactive cell proliferation assay system (Promega, Madison, Wis. 53711 USA) according to the manufacturer's instructions. Optical density was determined using a Bio-Tek 340 spectrophotometer (Bio-Tek, Winooski, Vt. 05404) and were then processed using Excel (Microsoft, Redmond, Wash. 98052-7329) and GraphPad Prism 5 linear regression software (GraphPad Software, La Jolla, Calif. 92037 USA) to determine concentration-response curves for calculating relative GI50s. Synergy was determined by calculating a combination index value using the formula CI (combination index)=(CA,X/ICx,A)+(CB,X/ICx,B), where CA,X and CB,X are the concentrations of drug A and drug B used in combination to achieve x % drug effect. ICx,A and ICx,B are the concentrations for single agents to achieve the same effect.
(§3) Hec1 inhibitor-responsive cancer cells used for screening were treated with a mixture of Hec1 inhibitor and select anti-cancer drug at appropriate concentration ratios and evaluated for cell viability.

The test system of a further experiment is MB-468. The description is as above. As to the method: as §2, §3
Experiment [2] relates to HeLa. The experiment is described as above. As to the method:
as §2, §3

In experiment [3] the test system is K562. The experiment is described as above. As to the method:
as §2, §3

Another experiment concerns NCI/ADR-RES. Briefly: Drug sensitivity, MTS assay, drug resistant cell line. Conditions: Homo sapiens, multi-drug resistant uterine sarcoma. The method, then:
as §1

In another experiment the test system is K562R. The description is as above. Conditions: Homo sapiens, K-562R, Gleevec resistant myelogenous leukemia. The method, then:
as §1

In another experiment the test system is MEX-SA/Dx5. The experiment is described as above. Conditions: MEX-SA/Dx5, multi-drug resistant uterine sarcoma. As to the method:
as §1

The next experiment relates to PCL/PRF/5. Briefly: Synergy of Hec1 inhibitor with cytotoxic drug (combination index, MTS). Also noted: key: CI = (CA,X/ICx,A)+(CB,X/ICx,B) at x% drug effect. The method, then:
as §2, §3

Experiment [4] has as its system HepG2. The experiment is described as above. Also noted: key: CI = (CA,X/ICx,A)+(CB,X/ICx,B) at x% drug effect. The method, then: as §2, §3
Experiment [5] concerns Hep3B. The description is as above. More on the design: key to Combination Index: CI = (CA,X/ICx,A)+(CB,X/ICx,B) at x% drug effect. As to the method:
as §2, §3

The subject of experiment [6] is Huh7. Described as above. Also noted: key to Combination Index: CI = (CA,X/ICx,A)+(CB,X/ICx,B) at x% drug effect. As to the method: as §2, §3
The next experiment concerns MDA-MB-468. The experiment can be described thus: Drug sensitivity, MTS cell viability assay (GI50). As to the method:
as §1

In experiment [7] the test system is Hep3B. Briefly: Drug sensitivity, MTS cell viability assay (GI50). Conditions: Homo sapiens, 96 h. As to the method: as §1
Another experiment concerns T47D. Briefly: Drug sensitivity, MTS cell viability assay (GI50). The conditions noted are these: Homo sapiens, 96 hours. As to the method: as §1
For another experiment, the system named is Hs578T. The experiment can be described thus: Drug sensitivity, MTS cell viability assay (GI50). Conditions: Homo sapiens, Hs-578T, 96 hours. The method, then:
as §1

Another experiment deals with PLC/PRF/5. Briefly: Drug sensitivity, MTS cell viability assay (GI50). The conditions noted are these: Homo sapiens, PLC/PRF/5, 96 hours. The method, then:
as §1

For a further experiment, the system named is ZR-75-1. Briefly: Drug sensitivity, MTS cell viability assay (GI50). Conditions: Homo sapiens, ZR-75-1, 96 hours. As to the method:
as §1

The next experiment has as its system MDA-MB-453. The experiment can be described thus: Drug sensitivity, MTS cell viability assay (GI50). Conditions: Homo sapiens, MDA-MB-453, 96 hours. The method, then: as §1
Experiment [8] deals with HepG2. The experiment can be described thus: Drug sensitivity, MTS cell viability assay (GI50). Conditions: Homo sapiens; for GI50: HepG2, 96 hours, MTS. As to the method:
as §1

For experiment [9], the system named is HeLa. The experiment can be described thus: Drug sensitivity, MTS cell viability assay (GI50). The conditions noted are these: Homo sapiens, 96 hours. As to the method:
as §1

Experiment [10] relates to K562. Briefly: Drug sensitivity, MTS cell viability assay (GI50). Conditions: Homo sapiens, K562, 96 h. The method, then:
as §1

The next experiment concerns MDA-MB-231. The experiment can be described thus: Drug sensitivity, MTS cell viability assay (GI50). The method, then:
as §1

Where [11] appears, read: in combination with Taxol (paclitaxel).
[12] abbreviates: in combination with doxorubicin.
Setting [13] is: Homo sapiens, Huh-7, 96 h, Huh7, 96 hours, MTS.

SMILES strings stand for the structures. Where only a bound is given, the exact number is not on record here.

On to `O=C(Cc1ccc(-c2ccc(OCCN3CCOCC3)cc2)cn1)NCc1ccccc1` [KX01], for which growth in the experiment with Huh7 [1] (Huh7, 96 hours, MTS) was halved (GI50) at 27.2 nM.

`COc1ccc(Oc2cc(C)c(-c3csc(NC(=O)c4ccnc(F)c4)n3)c(C)c2)cc1` [compound 101015, 2-fluoro-N-(4-(4-(4-methoxyphenoxy)-2,6-dimethylphenyl)thiazol-2-yl)isonicotinamide]: the “Combination Index” value in the experiment on MB-231 (setting [11]) turned out to be 0.98; with MB-231 (setting [12]), 1.75; in the experiment with MB-231 (in combination with topotecan) it was 0.85; in the experiment on MB-468 (in combination with Taxol), 1.16; in the experiment on MB-468 (setting [12]) it was 1.23; with MB-468 (in combination with topotecan), 0.74. Moreover, the “Combination Index” value in the experiment on HeLa [2] (in combination with Taxol) is 1.01; in the experiment with HeLa [2] (setting [12]) it was 6.83; in the experiment on HeLa [2] (in combination with topotecan) it was 1.58; in the experiment with K562 [3] (setting [11]), 0.62; in the experiment with K562 [3] (setting [12]), 0.62; in the experiment with K562 [3] (in combination with topotecan), 1.12. Besides, the “Combination Index” value with PCL/PRF/5 (in combination with KX01) was 1.31; in the experiment with PCL/PRF/5 (in combination with Taxol) it was 0.99; with PCL/PRF/5 (setting [12]) it was 1.65; in the experiment with PCL/PRF/5 (in combination with sorafenib), 1.15; with PCL/PRF/5 (in combination with topotecan), 1.17; in the experiment with HepG2 [4] (in combination with KX01), 1.68. The “Combination Index” value with HepG2 [4] (setting [12]) is given as 1.74; in the experiment with HepG2 [4] (in combination with sorafenib), 0.89; in the experiment on HepG2 [4] (in combination with topotecan) it was 1.92; in the experiment on Hep3B [5] (in combination with KX01) it was 2.32; in the experiment on Hep3B [5] (in combination with Taxol) it was 2.38; in the experiment with Hep3B [5] (setting [12]), 2.00. Besides, the “Combination Index” value in the experiment on Hep3B [5] (in combination with sorafenib) was found to be 1.91; in the experiment on Hep3B [5] (in combination with topotecan) it was 1.05; in the experiment on Huh7 [6] (in combination with KX01 (KXO1)), 1.08; with Huh7 [6] (setting [11]) it was 0.32; in the experiment with Huh7 [6] (setting [12]), 0.54; in the experiment on Huh7 [6] (in combination with sorafenib) it was 1.08. In the experiment with Huh7 [6] (in combination with topotecan), the “Combination Index” value came out at 0.62. Further, the GI50 came to 21.6 nM in the experiment with NCI/ADR-RES, 26 nM with K562R and 34.9 nM in the experiment with MEX-SA/Dx5.

Regarding `COc1cccc2c1C(=O)c1c(O)c3c(c(O)c1C2=O)C[C@@](O)(C(=O)CO)C[C@@H]3O[C@H]1C[C@H](N)[C@H](O)[C@H](C)O1` [doxorubicin], the GI50 with MDA-MB-468 (Homo sapiens, MDA-MB-468, 96 h) was found to be 28.3 nM; in the experiment with MDA-MB-468 (MDA-MB-468, 96 hours), 27 nM; in the experiment with Hep3B [7] it was 248 nM; with T47D, 11.9 nM; in the experiment with Huh7 [1] (setting [13]), 183 nM; with Huh7 [1] (Homo sapiens, Huh-7, Huh7, unit inferred) it was 183 nM. For the same molecule, the GI50 in the experiment with Hs578T turned out to be 711 nM; in the experiment with PLC/PRF/5 it was 69.7 nM; with ZR-75-1, 0.0929 µM; with MDA-MB-453, 158 nM; with HepG2 [8], 0.746 µM; in the experiment with HeLa [9], 242 nM. In the experiment on K562 [10], this molecule returned a 50% growth inhibitory concentration (GI50) of 36.2 nM.

For `CC(=O)O[C@H]1C(=O)[C@@]2(C)[C@H]([C@H](OC(=O)c3ccccc3)[C@]3(O)C[C@H](OC(=O)[C@H](O)[C@@H](NC(=O)c4ccccc4)c4ccccc4)C(C)=C1C3(C)C)[C@]1(OC(C)=O)CO[C@@H]1C[C@@H]2O` [paclitaxel], the GI50 with NCI/ADR-RES turned out to be 2330 nM; in the experiment on K562R, 34.5 nM; with MEX-SA/Dx5 it was 6250 nM; with MDA-MB-468 (Homo sapiens, MDA-MB-468, 96 h) it was 2.38 nM; in the experiment on MDA-MB-231 (Homo sapiens, MDA-MB-231, 96 h), 3 nM; in the experiment with MDA-MB-231 (MDA-MB-231, 96 hours), 4.91 nM. For the same molecule, the GI50 is 9.47 nM with Hep3B [7]; 3.19 nM with T47D; 93.5 nM with Huh7 [1] (Huh7, 96 hours, MTS); 8.39 nM in the experiment with Hs578T; 8.58 nM in the experiment with PLC/PRF/5; more than 10 µM with ZR-75-1 (bound given in μM). For the same molecule, the GI50 with MDA-MB-453 is 1.42 nM; in the experiment with HepG2 [8] (bound given in μM) it was more than 50 µM; with HeLa [9], 7.8 nM. For the same molecule, the IC50 in the experiment with HepG2 [8] (HepG2, Taxol-resistant) is more than 10000 nM.

`CNC(=O)c1cc(Oc2ccc(NC(=O)Nc3ccc(Cl)c(C(F)(F)F)c3)cc2)ccn1` [sorafenib]: the GI50 with MDA-MB-468 (Homo sapiens, MDA-MB-468, 96 h) came out at 3170 nM; in the experiment on MDA-MB-231 (Homo sapiens, MDA-MB-231, 96 h), 3040 nM; in the experiment on Hep3B [7], 3680 nM; in the experiment on T47D it was 1730 nM; in the experiment on Huh7 [1] (setting [13]), 4500 nM; with PLC/PRF/5, 3760 nM. The GI50 in the experiment with ZR-75-1 was 4.34 µM; in the experiment on MDA-MB-453, 2520 nM; in the experiment on HepG2 [8], 8.25 µM.

Turning to `CC[C@@]1(O)C(=O)OCc2c1cc1n(c2=O)Cc2cc3c(CN(C)C)c(O)ccc3nc2-1` [topotecan], the GI50 in the experiment with MDA-MB-468 (Homo sapiens, MDA-MB-468, 96 h) is 10.7 nM; with MDA-MB-231 (Homo sapiens, MDA-MB-231, 96 h) it was 347 nM; in the experiment with Hep3B [7], 422 nM; in the experiment with T47D, 9.43 nM; in the experiment on Huh7 [1] (Huh7, 96 hours, MTS) it was 50.9 nM; in the experiment on Hs578T, 4960 nM. In addition, the GI50 came to 174 nM in the experiment with PLC/PRF/5; 0.0363 µM with ZR-75-1; 92.3 nM with MDA-MB-453; 0.435 µM in the experiment on HepG2 [8]; 637 nM in the experiment on HeLa [9]; 36.1 nM in the experiment on K562 [10].

For orientation: GI50 means the concentration that inhibits growth by half. Broadly, the IC50 is the point on the concentration scale where inhibition reaches its midpoint.
